Earlier results on 12 compounds are cited in PubChem BioAssay AID1259410 (Chemical Carcinogenesis Research Information System (CCRIS), 2018).

The data set concerns rodent tumor promotion studies, tumor incidence. Briefly: CCRIS tumor promotion studies.

With `Oc1ccc(O)cc1`, the outcome was “kidney: microadenoma, renal cell tumor” (Carcinogen: N-ETHYL-N-HYDROXYETHYLNITROSAMINE, 13147-25-6, Doses [Carcinogen]: 0.1% IN DRINKING WATER FOR 3 WK, Doses [Promoter]: 0, 0.8% IN DIET FOR 36 WK BEGINNING 1 WK POST CARCINOGEN TREATMENT (STUDY DURATION: 40 WK), Route [Carcinogen]: ORAL, Route [Promoter]: ORAL, Species: RAT, Strain/Sex: WISTAR/MALE); “lung: adenoma” (Carcinogen: N-METHYL-N-NITROSOUREA [684-93-5], Doses [Carcinogen]: 20 MG/KG BW ONCE ON DAY 9 AFTER BIRTH (STUDY DURATION: 28 WK), Doses [Promoter]: 0.8% IN DIET FOR 26 WK BEGINNING 2 WK POST LAST CARCINOGEN DOSE (STUDY DURATION: 28 WK), Route [Carcinogen]: INTRAPERITONEAL, Route [Promoter]: ORAL, Species: MOUSE, Strain/Sex: ICR (CD-1)/FEMALE); “lung: carcinoma” (Carcinogen: N-METHYL-N-NITROSOUREA [684-93-5], Doses [Carcinogen]: 20 MG/KG BW ONCE ON DAY 9 AFTER BIRTH (STUDY DURATION: 28 WK), Doses [Promoter]: 0.8% IN DIET FOR 26 WK BEGINNING 2 WK POST LAST CARCINOGEN DOSE (STUDY DURATION: 28 WK), Route [Carcinogen]: INTRAPERITONEAL, Route [Promoter]: ORAL, Species: MOUSE, Strain/Sex: ICR (CD-1)/MALE).
In the case of `O=C1c2c(O)cccc2Cc2cccc(O)c21`, the outcome (Carcinogen: 7,12-DIMETHYLBENZ(A)ANTHRACENE, Doses [Carcinogen]: TOP, Route [Carcinogen]: DERMAL, Route [Promoter]: DERMAL, Species: MOUSE, Strain/Sex: MALE,FEMALE) is reported as “integumentary system (skin)”.
As to `C=C(C)[C@]12C[C@@H](C)[C@@]34O[C@](CCCCCCCCC)(O[C@@H]1[C@@H]3[C@@H]1O[C@]1(CO)[C@@H](O)[C@]1(O)C(=O)C(C)=C[C@H]14)O2`, the outcome (Carcinogen: 7,12-DIMETHYLBENZ(A)ANTHRACENE, Doses [Carcinogen]: 100 NMOL ONCE, Doses [Promoter]: 10, 20 NMOL 2/WK FOR 24 WK, Route [Carcinogen]: DERMAL, Route [Promoter]: DERMAL, Species: MOUSE, Strain/Sex: NMRI/FEMALE) is “integumentary system (skin): tumor (nos)”.
Take `Cc1ccc(O)c(C)c1`: where the note is “Carcinogen: 7,12-DIMETHYLBENZ(A)ANTHRACENE, Doses [Carcinogen]: TOP, Route [Carcinogen]: DERMAL, Route [Promoter]: DERMAL, Species: MOUSE, Strain/Sex: FEMALE”, the outcome is on record as “integumentary system (skin)”.
As to `CC[C@H](C)[C@H](N)C(=O)O`, the outcome (Carcinogen: N-BUTYL-N-(4-HYDROXYBUTYL)NITROSAMINE, 3817-11-6, Doses [Carcinogen]: 0.05% IN DRINKING WATER FOR 4 WK, Doses [Promoter]: 0, 2% IN DIET BEGINNING POST CARCINOGEN TREATMENT AND CONTINUING FOR DURATION OF STUDY (STUDY DURATION: 40 WK), Route [Carcinogen]: ORAL, Route [Promoter]: ORAL, Species: RAT, Strain/Sex: F344/MALE) was “bladder: carcinoma”.
Take `CCCCCCCCCC(=O)OC[C@H](CO)OC(=O)CCCCCCCCC`: the outcome (Carcinogen: 7,12-DIMETHYLBENZ[A]ANTHRACENE, 57-97-6, Doses [Carcinogen]: 200 NMOL IN 200 µL OF ACETONE ONCE, Doses [Promoter]: 0, 2, 5 UMOL IN 20 µL ACETONE 2/D 5 D/WK FOR 20 WK BEGINNING 1 WK AFTER LAST CARCINOGEN DOSE (STUDY DURATION: 24 WK), Doses [Promoter]: 0, 2, 5 UMOL IN 20 µL ACETONE 2/D 5 D/WK FOR 20 WK BEGINNING 1 WK AFTER LAST CARCINOGEN DOSE (STUDY DURATION: 24 WK), Route [Carcinogen]: DERMAL, Route [Promoter]: DERMAL, Species: MOUSE, Strain/Sex: CD-1/FEMALE) was “skin: papilloma”.
As for `CC1=CC[C@H]2C[C@@H]1C2(C)C`, where the note is “Carcinogen: 7,12-DIMETHYLBENZ(A)ANTHRACENE, Doses [Carcinogen]: TOP, Route [Carcinogen]: DERMAL, Route [Promoter]: DERMAL, Species: MOUSE”, the outcome was “integumentary system (skin)”.
For `CC(C)(Oc1ccc(C2CCCc3ccccc32)cc1)C(=O)O` (configuration not stated), the outcome (Carcinogen: DIETHYLNITROSAMINE, 55-18-5, 2-ACETYLAMINOFLUORENE, 6292-55-3, CARBON TETRACHLORIDE, 56-23-5, Carcinogen: DIETHYLNITROSAMINE, 55-18-5, 2-ACETYLAMINOFLUORENE, 6292-55-3, CARBON TETRACHLORIDE, 56-23-5, Doses [Carcinogen]: 200 MG/KG ONCE FOLLOWED 2 WK LATER BY 0.03% 2-ACETYLAMINOFLUORENE IN DIET FOR 2 WK PLUS 2 ML/KG CARBON TETRACHLORIDE IN, Doses [Promoter]: 0.1% IN DIET STARTING 1 WK POST 2-ACETYLAMINOFLUORENE AND CONTINUED FOR 6 MO (STUDY DURATION: 7 MO), Route [Carcinogen]: INTRAPERITONEAL, ORAL, INTRAGASTRIC, Route [Carcinogen]: INTRAPERITONEAL, ORAL, INTRAGASTRIC, Route [Promoter]: ORAL, Species: RAT, Strain/Sex: WISTAR/MALE) is “liver: hepatocellular carcinoma”.
On to `C=Cc1c(C)c2[n-]c1=CC1=NC(=CC3=C(C)C(=C([O-])[O-])C(=N3)C(CC(=O)[O-])=C3N=C(C=2)C(C)C3CCC(=O)[O-])C(CC)=C1C.[Cu+2].[Na+].[Na+].[Na+]` (configuration not stated), for which the outcome (Carcinogen: 1,2-DIMETHYLHYDRAZINE, 540-73-8, Doses [Carcinogen]: 20 MG/KG/BW 1/WK FOR 5 WK, Doses [Promoter]: 0, 1.5 MILLIMOLAR IN DRINKING WATER BEGINNING POST CARCINOGEN TREATMENT AND CONTINUING FOR DURATION OF STUDY (STUDY DURA, Route [Carcinogen]: INTRAPERITONEAL, Route [Promoter]: ORAL, Species: RAT, Strain/Sex: F344/MALE) is on record as “colorectal: tumor” and the outcome (Carcinogen: 1,2-DIMETHYLHYDRAZINE, 540-73-8, Doses [Carcinogen]: 20 MG/KG/BW 1/WK FOR 5 WK, Doses [Promoter]: 0, 1.5 MILLIMOLAR IN DRINKING WATER THROUGHOUT THE STUDY (STUDY DURATION: 25 WK), Route [Carcinogen]: INTRAPERITONEAL, Route [Promoter]: ORAL, Species: RAT, Strain/Sex: F344/MALE) is on record as “colorectal: tumor”.
Consider `COc1c2occc2cc2ccc(=O)oc12`, for which the outcome is, setting by setting: (Carcinogen: 4-(Methylnitrosamino)-1-(3-pyridyl)-1-butanone (NNK), 64091-91-4, Doses [Carcinogen]: Once, 2 mg/0.1 ml saline/mouse on first day, study duration 32 wks, Doses [Carcinogen]: Once, 2 mg/0.1 ml saline/mouse on first day, study duration 32 wks, Doses [Promoter]: 100 ppm in diet from wks 2-16, study duration 32 wks, Route [Carcinogen]: Intraperitoneal, Route [Promoter]: Oral, Species: Mouse, Strain/Sex: A/J/Female) “lung: adenoma (2.15 vs 1.54, not significant)”; (Carcinogen: 4-(Methylnitrosamino)-1-(3-pyridyl)-1-butanone (NNK), 64091-91-4, Doses [Carcinogen]: Once, 2 mg/0.1 ml saline/mouse on first day, study duration 32 wks, Doses [Carcinogen]: Once, 2 mg/0.1 ml saline/mouse on first day, study duration 32 wks, Doses [Promoter]: 100 ppm in diet from wks16-32, study duration 32 wks, Route [Carcinogen]: Intraperitoneal, Route [Promoter]: Oral, Species: Mouse, Strain/Sex: A/J/Female) “lung: adenoma and adenocarcinoma (7.31 vs 6.78, not significant)”.
Consider `CCCCCCCCCCCC(=O)OC[C@@H](O)[C@H]1OC[C@H](O)[C@H]1O`, for which the outcome (Carcinogen: 7,12-DIMETHYLBENZ(A)ANTHRACENE, Doses [Carcinogen]: TOP, Route [Carcinogen]: DERMAL, Route [Promoter]: DERMAL, Species: MOUSE, Strain/Sex: MALE) is reported as “integumentary system (skin)”.
Regarding `O=C(O)CN(CC(=O)O)CC(=O)O`, the outcome is, setting by setting: (Carcinogen: N-BIS(2-HYDROXYPROPYL)NITROSAMINE, 53609-64-6, Doses [Carcinogen]: 0.2% IN DRINKING WATER FOR 2 WK, Doses [Promoter]: 0, 1% IN DIET FOR 30 WK BEGINNING POST CARCINOGEN DOSE (STUDY DURATION: 32 WK), Route [Carcinogen]: ORAL, Route [Promoter]: ORAL, Species: RAT, Strain/Sex: WISTAR/MALE) “bladder: papilloma”; (Carcinogen: N-BUTYL-N-(4-HYDROXYBUTYL)NITROSAMINE, 3817-11-6, Doses [Carcinogen]: 500 PPM IN DRINKING WATER FOR 4 WK, Doses [Promoter]: 0, 10000 PPM IN DIET BEGINNING POST CARCINOGEN TREATMENT AND CONTINUING FOR 28 WK (STUDY DURATION: 32 WK), Route [Carcinogen]: ORAL, Route [Promoter]: ORAL, Species: RAT, Strain/Sex: WISTAR/MALE) “urinary bladder: papilloma, transitional cell carcinoma”; (Carcinogen: N-BUTYL-N-(4-HYDROXYBUTYL)NITROSAMINE, 3817-11-6, Doses [Carcinogen]: 500 PPM IN DRINKING WATER FOR 4 WK, Doses [Promoter]: 0, 10000 PPM IN DIET FOR 28 WK STARTING POST CARCINOGEN (STUDY DURATION: 32 WK), Route [Carcinogen]: ORAL, Route [Promoter]: ORAL, Species: RAT, Strain/Sex: WISTAR/MALE) “bladder: papilloma, transitional cell carcinoma, squamous cell carcinoma”; (Carcinogen: N-ETHYL-N-(2-HYDROXYETHYL)NITROSAMINE, Doses [Carcinogen]: 1000 PPM IN DIET FOR 2 WK, Doses [Promoter]: 500, 10000 PPM IN DIET FOR 30 WK, Route [Carcinogen]: ORAL, Route [Promoter]: ORAL, Species: RAT, Strain/Sex: WISTAR/MALE) “kidney: tubular cell tumor”; (Carcinogen: N-ETHYL-N-HYDROXYETHYLNITROSAMINE, 13147-25-6, Doses [Carcinogen]: 0.1% IN DIET FOR 2 WK, Doses [Promoter]: 0, 1% IN DIET BEGINNING POST CARCINOGEN TREATMENT AND CONTINUING FOR 30 WK (STUDY DURATION: 32 WK), Route [Carcinogen]: ORAL, Route [Promoter]: ORAL, Species: RAT, Strain/Sex: F344/MALE) “kidney: adenoma or carcinoma”; (Carcinogen: N-ETHYL-N-HYDROXYETHYLNITROSAMINE, 13147-25-6, Doses [Carcinogen]: 1000 PPM IN DIET FOR 2 WK, Doses [Promoter]: 0, 500, 10000 PPM IN DIET FOR 30 WK STARTING POST CARCINOGEN (STUDY DURATION: 32 WK), Doses [Promoter]: 0, 500, 10000 PPM IN DIET FOR 30 WK STARTING POST CARCINOGEN (STUDY DURATION: 32 WK), Route [Carcinogen]: ORAL, Route [Promoter]: ORAL, Species: RAT, Strain/Sex: WISTAR/MALE) “kidney: tubular cell tumor”. For the same compound, the outcome (Carcinogen: Potassium bromate (7758-01-2), Doses [Carcinogen]: 60, 125, 250 and 500 ppm in drinking water for 13 wk (study duration 52 wk), Doses [Promoter]: 1% in diet for 37 wks starting 2 wk after end of carcinogen administration (study duration 52 wk), Route [Carcinogen]: Oral, Route [Promoter]: Oral, Species: Rat, Strain/Sex: F344 (15/Group)) is “kidney: significant increase in multiplicity of atypical tubules and of incidenc”.
